In US5128345A, “Carcinostatic composition comprising indolquinolines” (Mect Corporation, priority 1988, dated 1992):

Assays:
[1] = J. Med. Chem., vol. 17, 922 (1974); among acridines with the 9-position alkylamino group replaced; cited from earlier work
KB cells = test: Test for inhibiting multiplication/growth of KB cells (in vitro); type: cell-based, Human; conditions: compound added Day 1, cells counted Day 4, 37° C., 5% CO2, 50% inhibition rate, 4320 min
Description: 1) Function for Inhibiting Multiplication of KB-1 Cell (in vitro test)
KB cells, carcinomatous cell tumors, were transferred to in vitro floatation incubator systems, and added respectively with the Compounds (1), (2) and (3). The results of cultivation added with the Compounds (1), (2) and (3) were compared with the result of the control which was not added with any compound.
Cell used: KB Cell (Originating from Human Mouth Epidermal Cancer),
Culture medium: Eagles Minimal Essential Medium supplemented with 10% Calf Serum,
Cultivation: 37° C. Carbon dioxide Gas incubator (5% CO2).
KB cells were diluted in the culture medium to adjust the KB cell density to 2 x 10^4 /ml.
Three ml of the cell suspension was inoculated in each of 60 mm plastic dishes.
Two dishes per standard dosage were used.
Test compound was added to the medium so that the final concentrations were set to 100, 30, 10, 3 and 1 μg/ml.
Cells were scraped off from the dish using trypsin, and the cell number was countered using a Corter counter.
In general accordance with the stipulations set forth by the National Cancer Institute (NCI), U.S.A., the concentration of compound necessary for exerting 50% growth inhibition (ED50) compared to the control was determined.

P-388 = test: Prolongation of life span in P-388 cancer implanted mouse (in vivo); design: species or system CDF Mouse; conditions: Day 1 and Day 5, P-388 inoculated i.p., 10^6 cells/mouse
Description: Effect on Prolongation of Life Span in Cancer implanted Mouse and Acute Toxicity
Pharmacological effects of the compounds as used in Test Example 1 were tested in vivo using P-388 implanted mice.
Animal Used: CDF Mouse (6 mice/group),
Number of Inowlated Cells: 10^6 cells/mouse,
Day of Administration: Day 1 and Day 5,
Dosage: LD50 or 400 mg/kg/day at the maximum.
The treatment was judged as effective when the ratio of survival of the treated group to that of the control group (T/C %) was 120% or more. The survival period of the control group was generally about 10 days.

Structure (SMILES): COc1cc(NS(C)(=O)=O)ccc1Nc1c2ccccc2nc2ccccc12 [Amsacrine, N-(4-(9-acridylamino)-3-methoxyphenyl)methanesulfonamide]
- carcinostatic function [1]: highest carcinostatiac function

Structure (SMILES): COc1cc(NS(C)(=O)=O)ccc1Nc1c2ccccc2nc2c1[nH]c1ccccc12 [Compound 1]
- ED50: concentration of compound necessary for exerting 50% growth inhibition compared to the control (Concentration at Inhibition Rate 50%) (KB cells): 0.3 µg/mL
- Ratio of Life Prolongation (T/C %) (P-388; 6.25 mg/kg): 300%
- Ratio of Life Prolongation (T/C %) (P-388; 12.5 mg/kg): 203%
- Ratio of Life Prolongation (T/C %) (P-388; 25 mg/kg): 111%

Structure (SMILES): COc1cc(NS(C)(=O)=O)ccc1Nc1c2ccccc2nc2cc3ccccc3cc12 [Compound 2, N-(4-((benzo(b)acridine-12yl)amino)-3-methoxyphenyl)methanesulfonamide]
- ED50: concentration of compound necessary for exerting 50% growth inhibition compared to the control (Concentration at Inhibition Rate 50%) (KB cells): 1.15 µg/mL
- Ratio of Life Prolongation (T/C %) (P-388; 100 mg/kg): 122%
- Ratio of Life Prolongation (T/C %) (P-388; 200 mg/kg): 130%
- Ratio of Life Prolongation (T/C %) (P-388; 400 mg/kg): 130%

Structure (SMILES): COc1cc(NS(C)(=O)=O)ccc1Nc1c2ccccc2nc2c1ccc1ccccc12 [Compound 3]
- Ratio of Life Prolongation (T/C %) (P-388; 50 mg/kg): 157%
- Ratio of Life Prolongation (T/C %) (P-388; 100 mg/kg): 163%
- Ratio of Life Prolongation (T/C %) (P-388; 200 mg/kg): 204%
